# Where a chain is given by its changes, count along the chain named. pKd: −log10 of the molar value.
# Columns and labels:
# [1] = biological target: T1, Islet amyloid polypeptide (IAPP, or amylin), wild-type (Homo sapiens, UniProt P10997); test: T1ρ and WaterLOGSY ligand-observed NMR; assay type: binding; conditions: IAPP monomer; 20 μM IAPP, 100 μM compound, 25 mM sodium phosphate pH 6.8, 1% v/v DMSO-d6, 5 °C
# T1 construct: SEC-purified monomer; N-terminally biotinylated at Lys1 (PEG4) for SPR only; cut from pro-islet amyloid polypeptide
# T1 sequence (P10997 34-70): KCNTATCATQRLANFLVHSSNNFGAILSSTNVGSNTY
# [2] = biological target: T2, Islet amyloid polypeptide (IAPP, or amylin), wild-type (Homo sapiens, UniProt P10997, S53G); test: ThT fluorescence amyloid assembly assay; assay type: biochemical; conditions: 160 mM ammonium acetate pH 7.4, 1% v/v DMSO, 30 °C; inhibition of amyloid formation
# T2 construct: SEC-purified monomer; N-terminally biotinylated at Lys1 (PEG4) for SPR only; cut from pro-islet amyloid polypeptide
# T2 sequence (P10997 34-70 S53G): T1 sequence (P10997 34-70) with S20G
# [3] = biological target: T1, Islet amyloid polypeptide (IAPP, or amylin), wild-type; test: ThT fluorescence amyloid assembly assay; assay type: biochemical; conditions: 10 μM IAPP, 50 μM compound, 160 mM ammonium acetate pH 7.4, 1% v/v DMSO, 30 °C, quiescent; mainly inhibits primary nucleation
# [4] = biological target: T1, Islet amyloid polypeptide (IAPP, or amylin), wild-type; test: SPR, biotinylated IAPP on streptavidin chip; assay type: binding
smiles,measurement,setting,value
Cc1ccc([C@@H]2O[C@H](CO)[C@@H](O)[C@H](O)[C@H]2O)cc1Cc1ccc(-c2ccc(F)cc2)s1 [canagliflozin],ligand binding (observed by NMR),[1],further evidence that canagliflozin binds IAPP monomers with strong changes in all protons
same,ThT fluorescence amyloid assembly assay,[2],only canagliflozin was able to inhibit amyloid formation by the familial S20G variant of IAPP
same,fold-change in half-time of amyloid formation at 50 μM,[3],1.55 ± 0.22 fold
same,pKd,[4],< 3.82
COc1cc2nc(N3CCN(C(=O)C4COc5ccccc5O4)CC3)nc(N)c2cc1OC (centres unmarked) [doxazosin],fold-change in half-time of amyloid formation at 50 μM,[3],1.61 ± 0.29 fold
